From publication PMC6703555 (Journal of medicinal chemistry, 2018)

How the values were obtained:
[1] = human plasma
cancer cells = conditions: 2 hour exposure; cited from earlier work
in vitro = conditions: human, plasma, pH 7.5, half-life, 50% pooled human plasma in PBS
Vγ9Vδ2 T cells = conditions: 72 hour compound exposure, PBMCs; cited from earlier work
B30.2 domain of BTN3A1 = conditions: ITC; cited from earlier work

SMILES	hydrolysis after two hours [1]	EC50 (cancer cells) [nM]	half-life (in vitro) [min]	EC50 (Vγ9Vδ2 T cells) [nM]	binding to the B30.2 domain of BTN3A1 (B30.2 domain of BTN3A1)
C/C(=C\CCP(=O)(OCOC(=O)C(C)(C)C)OCOC(=O)C(C)(C)C)CO [Compound 2]	more than 95%	1.2	~8	–	–
C/C(=C\CCP(=O)([O-])[O-])CO.[Na+].[Na+] [Compound 10]	–	–	–	4000	does bind
COP(=O)(CC/C=C(\C)CO)OC [Compound 11]	–	–	–	> 10000	–
C/C(=C\COP(=O)(O)OP(=O)(O)O)CO [HMBPP, (E)-4-hydroxy-3-methyl-but-2-enyl diphosphate]	–	19	–	–	–
